Columns and labels:
[1] = Electrospray ionization mass spectrometry: biotin molecules bound per avidin tetramer; assay type: binding; details: spectra with or without biotin
Description: Biospin columns (Bio-Rad) are equilibrated by spinning 5 times in 500 μL of 15 mM ammonium acetate pH 7.8 at 1000 g for 2 min. Then 30-50 μL of 30 μM protein in PBS is buffer-exchanged into 15 mM ammonium acetate pH 7.8 using the pre-equilibrated Biospin columns by spinning for 20 s at 1000 g. To ensure that PBS is completely removed, the flow-through is again buffer-exchanged with a second pre-equilibrated column for 20 s. This procedure also removes free biotin when the starting 30 μM avidin forms are incubated with 200 μM biotin. Less than 2 min before introducing into the mass spectrometer, the buffer-exchanged samples are diluted with a solution of 1:1 15 mM ammonium acetate pH 7.8 and 78% acetonitrile, 0.01% trifluoroacetic acid.
An Advion nanospray robot (Advion BioSystems, Ithica, N.Y.) with a back-pressure of 0.45 Psi introduces the samples into the mass spectrometer, an 8.5 Tesla custom-built Electrospray Ionisation-Fourier Transform Mass Spectrometer. To visualize the non-covalent tetramers and non-covalent biotin binding in the high m/z range, the following settings are used: Chirp rate=750 Hz, Amplitude=0.5 V p-p, Tube lens=200 V, Capillary heater 2 V, Quad filter=−20 V, Skimmer=0 V, Capillary offset=34 V, X-fer=−110 V, Leak gas=4.2×10^−5 Torr. The capillary heater is kept low and the Quad filter and Skimmer are kept either high or off to prevent subunit dissociation. The transfer is set to this low value of −110 V in order to visualize the high m/z region.
The masses are calculated manually by first determining the charge state. The final mass is determined by multiplying the observed m/z by the charge and subtracting the mass corresponding to the addition of protons to give that charge. This calculation is repeated for each charge state and the mean and standard deviation reported. The spectra are calibrated with tetrameric avidin, after its monomer mass is determined under denaturing conditions. […]

[2] = system: biotinylated AP-CFP-TM on HeLa cells; test: Staining of biotinylated AP-CFP-TM on HeLa with Alexa Fluor 568-conjugated avidins; assay type: cell-based; details: avidin, Alexa Fluor 568 conjugate
Description: Enzymatic biotinylation and imaging of HeLa transfectants are performed as previously described (Howarth, M. et al., Proc. Natl. Acad. Sci. USA 102: 7583-7588, 2005), except instead of 10 μM biotin and 1 mM ATP, we add 10 μM biotin-AMP (synthesized according to Coleman and Huang; Coleman, T. M. and Huang, F. Chem. Biol. 9: 1227-1236, 2002) to give equivalent biotinylation but minimizing the risk of purinoreceptor activation by ATP (Rathbone, M. P. et al., Prog. Neurobiol. 59: 663-690, 1999). […] Biotinylation of neurons is performed at day in vitro (DIV) 8 in Hanks' Balanced Salt Solution (HBSS) (Invitrogen) with 0.2 μM biotin ligase and 10 μM biotin-AMP for 5 min at 37° C. […] Neurons are washed with NeuroBasal media (Invitrogen) supplemented with B-27 (Invitrogen), 50 U/mL penicillin, 50 μg/mL streptomycin, and 0.2 mM L-glutamine and chased in the same medium for 0 or 2 hr at 37° C. Cells are then fixed in −20° C. methanol. There was no signal from wild-type avidin labeling if neurons were instead transfected with Ala-neuroligin-1 containing a point mutation in AP, confirming the specificity of labeling. […]
Images of HeLa cells are collected on a Zeiss Axiovert 200M inverted epifluorescence microscope using a 40× oil-immersion lens and a MicroMAX CCD camera (Roper Scientific; Tucson, Ariz.). CFP (420DF20 excitation, 450DRLP dichroic, 475DF40 emission) and Alexa568 (560DF20 excitation, 585DRLP dichroic, 605DF30 emission) images are collected and analyzed using OpenLab software (Improvision; Lexington, Mass.). Fluorescence images are background-corrected. […] Images are scaled to 16 bits and analyzed in Northern Eclipse (Empix Imaging; Ontario, Canada) with user-written software. […] Results are then calculated in terms of clusters per micrometer of dendrite. For assessment of pre-synaptic terminals, clusters are determined as before and average grey levels of clusters are compared between transfected dendrites and untransfected dendrites within the same field of view. […] “n” represents the number of transfected neurons for which clusters were measured. […]

[3] = Off-rate of 3H-biotin from streptavidin (cold biotin chase); assay type: binding; details: 50 μM cold biotin chase, 5 hours at 37° C., ± s.e.m.
Description: (Green, N. M. Methods in Enzymol. 184: 51-67, 1990). Dissociation was then initiated by addition of cold biotin at a final concentration of 50 μM and time-points taken over 5 hours at 37° C. 50 μL aliquots were removed and added to 200 μL 0.2M ZnSO4 chilled on ice, followed by 200 μL 0.2 M NaOH. The protein precipitate was pelleted by centrifugation at 16,500 g for 5 min, and ^3H-biotin in the supernatant was measured by liquid scintillation counting. Data were plotted as ln(fraction bound) versus time, and fit to a straight line by linear regression. Dissociation rates were deduced from the slope of the line and the equation: ln(fraction bound)=−koff(t) where fraction bound=(total ^3H-biotin−free ^3H-biotin at timepoint)/(total ^3H-biotin−free ^3H-biotin before cold biotin chase).

Substance: D4: Streptavidin tetramer with 4 dead subunits (D: N23A, S27D, S45A, SEQ ID NO:3) [Tetramer D4]
- biotin binding per avidin tetramer by mass spectrometry (in words) [1]: No biotin binding
- Alexa staining of biotinylated AP-CFP-TM [2]: no detectable staining

Substance: A1D3: Monovalent streptavidin tetramer: one His6-tagged wild-type (A) subunit and three dead (D) subunits [Tetramer A1D3]
- off-rate from biotin [3]: 6.14±0.19×10^−5 s^−1
- biotin binding per avidin tetramer by mass spectrometry (in words) [1]: single biotin
- Alexa staining of biotinylated AP-CFP-TM [2]: detected equally well
